Test systems include NCI-H522 lung; SF-295 CNS; SK-MEL-2 melanoma; OVCAR-8 ovarian; UACC-257 melanoma; SN12C renal; RPMI-8226 leukemia; NCI-H23 lung; SK-OV-3 ovarian; M14 melanoma.
Holding throughout (test): DTP human tumour cell line panel, 48 h

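Where inhibition never reached the appropriate level, the endpoint shown equals the highest concentration tested. Otherwise, values were interpolated linearly from a five-concentration, 48-hour dose response in 96-well plates. GI50 is the concentration that inhibits growth by half. TGI marks complete inhibition of growth.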

Usually TGI stands for the concentration at which net growth stops. Consider `CCc1cccc(CC)c1NC(=O)C1=CNC(C)=C(C(=O)Nc2c(CC)cccc2CC)C1c1ccc(O)c(OC)c1` (stereo not given), for which the total growth inhibition concentration (TGI) was 77.4 µM with NCI-H522 lung; 73.8 µM in the assay on SF-295 CNS; 91.8 µM in the assay on SK-MEL-2 melanoma; more than 100 µM in the assay with OVCAR-8 ovarian; 92.7 µM with UACC-257 melanoma; more than 100 µM with SN12C renal. In addition, the concentration for total growth inhibition (TGI) in the assay on RPMI-8226 leukemia is 45.3 µM; in the assay on NCI-H23 lung it was more than 100 µM; with SK-OV-3 ovarian it was more than 100 µM; in the assay with M14 melanoma, more than 100 µM.
For the compound `CCCCCCCCC(=O)NCCN(CCN)C(=O)CCCCCCCC`, the concentration for total growth inhibition (TGI) in the assay on NCI-H522 lung was 7.21 µM; in the assay with SF-295 CNS it was 10.5 µM; in the assay with SK-MEL-2 melanoma, 30.1 µM; in the assay on OVCAR-8 ovarian, 26.8 µM; with UACC-257 melanoma, 33.7 µM; in the assay on SN12C renal, 24.7 µM. Also, the concentration for total growth inhibition (TGI) was 6.25 µM in the assay with RPMI-8226 leukemia, 32.2 µM in the assay with NCI-H23 lung, 29.9 µM in the assay on SK-OV-3 ovarian and 22 µM with M14 melanoma.
The term GI50 denotes the concentration giving 50% growth inhibition. Take `CC1SC(c2cccc(Cl)c2)N(NC(=O)C(O)c2ccccc2)C1=O` (stereo not given): the GI50 in the assay on NCI-H522 lung, in the assay with SF-295 CNS, in the assay with SK-MEL-2 melanoma, in the assay on OVCAR-8 ovarian, in the assay with UACC-257 melanoma and in the assay with SN12C renal was more than 100 µM in each case. Moreover, the GI50 in the assay with RPMI-8226 leukemia is 43.2 µM; in the assay with NCI-H23 lung, more than 100 µM; with SK-OV-3 ovarian, more than 100 µM; in the assay on M14 melanoma it was more than 100 µM. Also, the TGI in the assay with NCI-H522 lung, in the assay on SF-295 CNS, in the assay with SK-MEL-2 melanoma, in the assay with OVCAR-8 ovarian, with UACC-257 melanoma and in the assay on SN12C renal was more than 100 µM in each case. Moreover, the TGI in the assay with RPMI-8226 leukemia, in the assay on NCI-H23 lung, in the assay on SK-OV-3 ovarian and in the assay on M14 melanoma was more than 100 µM in each case.
On to `N#CC(CC(=O)O)=C(c1ccccc1)c1ccccc1`, for which the TGI in the assay with NCI-H522 lung, in the assay with SF-295 CNS, with SK-MEL-2 melanoma, in the assay on OVCAR-8 ovarian, in the assay with UACC-257 melanoma and in the assay with SN12C renal was more than 100 µM throughout. In addition, the total growth inhibition concentration (TGI) with RPMI-8226 leukemia, with NCI-H23 lung, in the assay on SK-OV-3 ovarian and with M14 melanoma was more than 100 µM each time.
For the compound `Nc1cc(N)c2nc(-c3ccccc3)c(Oc3ccc(Cl)c(Cl)c3)nc2c1`, the GI50 with NCI-H522 lung is 8.34 µM; in the assay on SF-295 CNS, 13.9 µM; with SK-MEL-2 melanoma, 5.63 µM; in the assay on OVCAR-8 ovarian it was 27.9 µM; in the assay with UACC-257 melanoma, 28.5 µM; in the assay with SN12C renal, 14.5 µM. In addition, the GI50 with RPMI-8226 leukemia is 3.51 µM; in the assay on NCI-H23 lung, 15.6 µM; in the assay with SK-OV-3 ovarian it was 23.9 µM; in the assay with M14 melanoma it was 14.1 µM. Also, the total growth inhibition concentration (TGI) in the assay with NCI-H522 lung is 33.7 µM; in the assay on SF-295 CNS, 31 µM; with SK-MEL-2 melanoma, 23.3 µM; with OVCAR-8 ovarian, 88.4 µM; with UACC-257 melanoma, 87.2 µM; in the assay with SN12C renal, 31.4 µM. For the same compound, the total growth inhibition concentration (TGI) in the assay with RPMI-8226 leukemia was more than 100 µM; in the assay with NCI-H23 lung, 39.9 µM; with SK-OV-3 ovarian, 65.9 µM; with M14 melanoma, 70.3 µM.
As to `COc1ccc2c(c1)C(=O)c1c-2n(CCCNCCO)c(=O)c2cc([N+](=O)[O-])ccc12`, the GI50 with NCI-H522 lung is less than 0.01 µM; with SF-295 CNS it was less than 0.01 µM; in the assay with SK-MEL-2 melanoma, 0.427 µM; with OVCAR-8 ovarian, less than 0.01 µM; in the assay on UACC-257 melanoma, 0.0691 µM; in the assay with SN12C renal, less than 0.01 µM. Also, the GI50 in the assay with RPMI-8226 leukemia, in the assay with NCI-H23 lung, in the assay on SK-OV-3 ovarian and in the assay on M14 melanoma was less than 0.01 µM each time. Further, the TGI in the assay on NCI-H522 lung was 2.82 µM; with SF-295 CNS it was 0.0115 µM; in the assay with SK-MEL-2 melanoma, 2.3 µM; in the assay on OVCAR-8 ovarian, 1.34 µM; in the assay on UACC-257 melanoma, 1.96 µM; with SN12C renal, 4.15 µM. Further, the TGI with RPMI-8226 leukemia was determined as 0.0469 µM; with NCI-H23 lung, 0.0341 µM; with SK-OV-3 ovarian, 1.69 µM; in the assay with M14 melanoma it was 0.117 µM.
On to `NC(N)=N/N=C/c1ccc(Br)cc1`, for which the GI50 in the assay with NCI-H522 lung is 4.39 µM; in the assay on SF-295 CNS, 2.95 µM; in the assay on SK-MEL-2 melanoma, 12 µM; with OVCAR-8 ovarian, 5.3 µM; in the assay with UACC-257 melanoma, 12.8 µM; in the assay on SN12C renal it was 6.55 µM. Besides, the GI50 with RPMI-8226 leukemia is 11.6 µM; in the assay on NCI-H23 lung it was 4.81 µM; in the assay on SK-OV-3 ovarian it was 6.75 µM; in the assay with M14 melanoma it was 2.21 µM. Besides, the TGI with NCI-H522 lung is 17.7 µM; in the assay on SF-295 CNS, 11.8 µM; in the assay on SK-MEL-2 melanoma it was 26.4 µM; in the assay with OVCAR-8 ovarian it was 21.2 µM; in the assay with UACC-257 melanoma it was 29.1 µM; in the assay on SN12C renal it was 20.2 µM. Further, the total growth inhibition concentration (TGI) was more than 100 µM in the assay on RPMI-8226 leukemia, 19.6 µM with NCI-H23 lung, 30.5 µM in the assay on SK-OV-3 ovarian and 5.67 µM in the assay with M14 melanoma.
Take `CCCCCCCCCCCCCCCC(N)c1ccccc1` (stereo not given): the GI50 in the assay on NCI-H522 lung was 1.62 µM; in the assay on SF-295 CNS, 1.73 µM; with SK-MEL-2 melanoma it was 1.68 µM; with OVCAR-8 ovarian, 2.22 µM; with UACC-257 melanoma, 1.78 µM; in the assay on SN12C renal it was 1.8 µM. The GI50 with RPMI-8226 leukemia was 2.09 µM; with NCI-H23 lung, 1.74 µM; in the assay with SK-OV-3 ovarian, 1.58 µM; with M14 melanoma, 1.7 µM. Further, the TGI with NCI-H522 lung is 3.21 µM; in the assay with SF-295 CNS, 3.35 µM; in the assay with SK-MEL-2 melanoma, 3.35 µM; in the assay on OVCAR-8 ovarian, 4.89 µM; in the assay with UACC-257 melanoma, 3.4 µM; in the assay on SN12C renal it was 3.51 µM. In addition, the total growth inhibition concentration (TGI) in the assay on RPMI-8226 leukemia turned out to be 4.66 µM; with NCI-H23 lung, 3.35 µM; in the assay on SK-OV-3 ovarian, 2.92 µM; with M14 melanoma, 3.15 µM.
As to `O=C1CC2OCC=C3CN4CCC56c7ccccc7N1C5C2C3CC46` (stereo not given) (tested in a mixture with another compound), the GI50 in the assay on NCI-H522 lung, in the assay on SF-295 CNS, in the assay on SK-MEL-2 melanoma, in the assay with OVCAR-8 ovarian, in the assay on UACC-257 melanoma and with SN12C renal was more than 50 µg/mL throughout. Besides, the GI50 in the assay with RPMI-8226 leukemia, with NCI-H23 lung, with SK-OV-3 ovarian and in the assay on M14 melanoma was more than 50 µg/mL each time. Besides, the TGI in the assay with NCI-H522 lung, in the assay with SF-295 CNS, in the assay with SK-MEL-2 melanoma, in the assay on OVCAR-8 ovarian, in the assay on UACC-257 melanoma and in the assay on SN12C renal was more than 50 µg/mL throughout. Moreover, the total growth inhibition concentration (TGI) with RPMI-8226 leukemia, in the assay on NCI-H23 lung, in the assay with SK-OV-3 ovarian and with M14 melanoma was more than 50 µg/mL in each case.

(Values after PubChem BioAssay (NCI).)
